# Measurements reported in patent US8071548B2, “Method of reducing injury to mammalian cells” (Nono, Inc., priority 2002, dated 2011).
# Assays:
# [1] = test system: cultured cortical neurons; experiment: NMDA excitotoxicity in cultured cortical neurons (propidium iodide fluorescence); format: cell-based, mouse
# NMDARs = experiment: NMDA-evoked 45Ca2+ accumulation in cortical cultures; format: cell-based, mouse; details: 50 nM pre-treatment
# Method: Excitotoxicity and Ca^2+ accumulation measurements were performed identically to the methods described and validated in refs. 4 and 14. I used measurements of propidium iodide fluorescence as an index of cell death, and of radiolabelled ^45Ca^2+ accumulation for Ca^2+ load determinations in sister cultures on the same day. Experimental solutions were as previously described (4). Ca^2+ influx was pharmacologically channeled through distinct pathways as follows: To NMDARs by applying NMDA (×60 min) in the presence of both CNQX (Research Biochemicals Inc.) and nimodipine (Miles Pharmaceuticals), to non-NMDARs by applying kainic acid (×60 min or 24 h) in the presence of both MK-801 (RBI) and nimodipine, and to VSCCs using 50 mM K^+ solution (×60 min) containing 10 mM Ca^2+ and S(−)-Bay K 8644, an L-type channel agonist (300-500 nM; RBI), MK-801 and CNQX. Antagonist concentrations were (in μM): MK-801 10, CNQX 10, nimodipine 2. All three antagonists were added after the 60 min agonist applications for the remainder of all experiments (24 h). A validation of this approach in isolating Ca^2+ influx to the desired pathway in these cortical cultures has been published (4).
# nNOS = experiment: NMDA-evoked cGMP formation (surrogate of NO production by nNOS); format: cell-based, mouse; details: 50 nM, pre-treated 1 h, NMDA 0-1000 μM
# Method: cGMP determinations were performed 10 min after challenging the cultures with NMDA, kainate, or high-K (FIGS. 4c-e) with the Biotrak cGMP enzyme immunoassay system according to the kit manufacturer's instructions (Amersham). Staining for NADPH diaphorase (FIG. 4b) was done as described in ref 12.
# CA1 neurons = experiment: Electrophysiological recordings in acute hippocampal slices (CA1 neurons); parameters: species or system rat; details: 50 nM bath-applied
# Method: Electrophysiological Recordings were made in […] hippocampal slices from 20-36 day old Sprague-Dawley rats perfused at room temperature with ACSF containing (in mM) 126 NaCl, 3 KCl, 2 MgCl2, 2 CaCl2, 1.2 KH2PO4, 26 NaHCO3 and 10 glucose and bubbled with 95% O2/5% CO2. Whole-cell recordings of CA1 neurons were performed using the “blind” method with an Axopatch-1D amplifier (Axon Instruments, Foster City, Calif.) at holding potential −60 mV. Pipettes (4-5 MΩ) were filled with solution containing (mM): 135 CsCl, 2 MgCl2, 0.1 CaCl2, 0.5 EGTA, 10 HEPES, 4 Mg-ATP, 0.2 GTP, and 5 QX-314, pH 7.4, 310 mOsm. Field potentials were recorded with glass micropipettes (2-4 MΩ) filled with ACSF placed in the stratum radiatum […] from the cell body layer. Synaptic responses were evoked by stimulation (0.05 ms) of the Schaffer collateral-commissural pathway with a bipolar tungsten electrode in the presence of bicuculline methiodide (10 μM). For INMDA recording, Mg^2+ was removed from and 20 μM CNQX was added in ACSF. Following 10-20 min base line recordings of EPSCs, INMDA and fEPSPs, Tat-peptides were applied in ACSF and recordings were continued for 30 min thereafter.
# [2] = test system: transient middle cerebral artery occlusion; experiment: Transient MCAO, post-treatment study (1 h after MCAO onset); format: in vivo, Sprague-Dawley rats; details: 3 nMole/g i.v. 1 h after MCAO onset
# Method: Next, I examined whether pretreatment with Tat-peptides would reduce stroke damage. Experiments were carried out in adult male Sprague-Dawley rats subjected to transient middle cerebral artery occlusion (MCAO) for 90 minutes by the intraluminal suture method (36,37). Animals were fasted overnight and injected with atropine sulfate (0.5 mg/kg IP). After 10 minutes anesthesia was induced with 3.5% halothane in a mixture of nitrous oxide and oxygen (Vol. 2:1) and maintained with 0.8% halothane. Rats were orally intubated, mechanically ventilated, and paralyzed with pancuronium bromide (0.6 mg/kg IV). Body temperature was maintained at 36.5-37.5° C. with a heating lamp. Polyethylene catheters in the femoral artery and vein were used to continuously record blood pressure and to sample blood for gas and pH measurements. […] This produces an extensive infarction encompassing the cerebral cortex and basal ganglia. […] Physiological parameters (body temperature, blood pressure, blood gases) were monitored and maintained throughout the experiment (Table 1). All experimental manipulations and analyses of data were performed by individuals blinded to the treatment groups. The extent of cerebral infarction was measured 24 h after MCAO onset (FIG. 7C inset). The postural reflex test (38), and the forelimb placing test (39) were used to grade neurological function on a scale of 0 to 12 (normal=0; worst=12) during MCAO (at 50 minutes) and 24 h thereafter.
# Next, I examined whether treatment with Tat-NR2B9c could attenuate ischemic neuronal damage in-vivo when given after stroke onset. […] Infarction volume and neurological outcome measurements were performed at times identical to the pre-treatment study. Body temperature, blood pressure and blood gases were monitored throughout the 24 h experiment and maintained equivalent between groups (Table 2).
# [3] = test system: transient middle cerebral artery occlusion; experiment: Transient MCAO, dose study of infarct size; format: in vivo, Sprague-Dawley rats
# reactive oxygen species = experiment: ROS production (DHR fluorescence); format: cell-based, mouse
# Method: The production of reactive oxygen species (ROS) was measured with DHR. In brief, DHR is oxidized to a fluorescent rhodamine-123 (Royall and Ischiropoulos, 1993), and the consequent rise in fluorescence may be used as an indicator of ROS production.
# ROS were measured as previously described (Tymianski et al., 1998; Aarts et al., 2003). In brief, cultures were pre-loaded for 30 min with 5 μM DHR and subjected to the experimental insult. DHR fluorescence was measured in a multiwell plate fluorescence scanner (Cytofluor II, PerSeptive Biosytems, Framingham, Mass., USA; 485 nm excitation, 530 emission). DHR fluorescence was normalized to baseline using the formula at (Ft−Fo)/F0; Where Ft=DHR fluorescence at time t, Fo=DHR fluorescence at time zero. DHR fluorescence images were also acquired using a microscope (465-495 nm excitation and 515-555 nm emission) as described above for TMRM.
substance,measurement,setting,value
Tat-KLSSIESDV [Tat-NR2B9c],"vulnerability of neurons to NMDA toxicity, post-treatment","[1]; 50 nM applied after 1 h NMDA challenge (0-100 μM), cell death at 20 h",significantly reduced
same,"NMDA-evoked cell death, pre-treatment","[1]; 50 nM for 1 h, then NMDA 0-100 μM 1 h, 20 h observation",significantly reduced
same,uptake of 45Ca2+ produced by applying NMDA,NMDARs,did not alter
same,suppression of NMDA-evoked increase in cGMP (average),nNOS,39.5±6.7%
same,"synaptic responses, total EPSC and AMPA or NMDA components of the EPSC in CA1 neurons",CA1 neurons,had no effect
same,24 h neurological scores,[2],significant improvement
same,reduction in cortical infarction volume,[2]; 24 h,86.97±4.38%
same,reduction of volume of total cerebral infarction,"[2]; 24 h, vs controls",67.0±3.75%
same,efficacy of the lowest dose versus higher doses,"[3]; 0.03 nmole/g, 3 h after stroke onset",equally effective
same,infarct size versus control dose,"[3]; 0.03, 0.3, 1 or 3 nmoles/g i.v. 3 h after stroke onset, measured 24 h after MCAO onset",significant reduction in infarct size
same,ROS production by stretch alone,reactive oxygen species; 50 nM pretreatment,has no effect
same,NMDA-evoked ROS production (DHR oxidation),"reactive oxygen species; 50 nM pretreatment 30 min, stretched and unstretched cultures",reduced NMDA-evoked ROS production
